According to patent publication US9896443B2, “Perforin inhibiting benzenesulfonamide compounds, preparation and uses thereof” (Peter MacCallum Cancer Institute, priority 2012, dated 2018):
Like-named read-outs stand apart in the source and are kept apart here.

What was measured:
recombinant perforin = recombinant perforin (UniProt P10820); assay type: cell-based
Experimental: Inhibition of perforin-mediated lysis of Jurkat cells.
The ability of the compounds to inhibit the lysis of nucleated (Jurkat T lymphoma) cells in the presence of 0.1% BSA, as measured by release of ^51Cr was measured. Jurkat target cells were labelled by incubation in medium with 100 μCi ^51Cr for one hour. The cells were then washed three times to remove unincorporated isotope and re-suspended at 1×10^5 cells per mL in RPMI buffer supplemented with 0.1% BSA. […] Each data point was performed in triplicate and an IC50 was calculated from the range of concentrations described to above.

[1] = system: KHYG-1 NK cell-mediated lysis of K562 cells; test: Inhibition of KHYG-1 NK cell-mediated lysis of K562 cells (51Cr release); assay type: cell-based; conditions: 4 h, K562 target cells, Effector:Target 2:1, 4 hours at 37° C.
Experimental: Inhibition of KHYG-1 NK Cell-Mediated Lysis of K562 Cells.
Test compounds were added to KHYG-1 cells at various concentrations up to 20 µM and incubated at RT for 20 minutes. 1×10^6 K562 target cells were labelled with 75 μCi ^51Cr in 200 μl RPMI for 90 mins at 37° C., cells were washed as described above and resuspended in 5 ml RPMI+0.1% BSA. 50 μl of ^51Cr labelled K562 leukemia target cells were added to each well of the KHYG-1 plate (Effector:Target 2:1) and incubated at 37° C. for 4 hours. ^51Cr release was assayed using a Skatron Harvesting Press and radioactivity estimated on a Wallac Wizard 1470 Automatic Gamma counter (Turku, Finland). The percentage of specific cytotoxicity was calculated by the formula: […]

[2] = lysis of Jurkat T lymphoma cells by recombinant perforin, 0.1% BSA, 30 min pre-incubation, 4 hours at 37° C.; read-out: Jurkat IC50
[3] = read-out: Jurkat IC50; lysis of Jurkat T lymphoma cells by recombinant perforin, 0.1% BSA, 30 min pre-incubation, 4 hours at 37° C.

recombinant perforin, sequence (P10820 whole entry): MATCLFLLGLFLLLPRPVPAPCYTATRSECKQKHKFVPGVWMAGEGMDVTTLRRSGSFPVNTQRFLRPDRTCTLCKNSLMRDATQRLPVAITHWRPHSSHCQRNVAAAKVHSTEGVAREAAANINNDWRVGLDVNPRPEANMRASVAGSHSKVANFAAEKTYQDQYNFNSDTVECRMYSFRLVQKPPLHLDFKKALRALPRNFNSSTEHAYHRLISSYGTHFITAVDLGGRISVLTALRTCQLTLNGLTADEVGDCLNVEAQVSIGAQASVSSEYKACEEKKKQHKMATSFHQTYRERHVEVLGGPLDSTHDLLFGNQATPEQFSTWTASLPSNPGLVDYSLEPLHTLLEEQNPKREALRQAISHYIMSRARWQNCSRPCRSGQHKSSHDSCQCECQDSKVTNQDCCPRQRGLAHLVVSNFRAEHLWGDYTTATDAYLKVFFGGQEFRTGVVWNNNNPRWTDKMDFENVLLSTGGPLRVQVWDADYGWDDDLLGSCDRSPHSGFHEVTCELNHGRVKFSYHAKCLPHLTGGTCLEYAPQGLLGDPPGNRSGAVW

Row | melting point | SMILES | IC50 (recombinant perforin; [2]) [µM] | inhibition at 20 µM [1] [%] | IC50 (recombinant perforin; [3]) [µM]
1 | 285 to 288 °C | CN1Cc2cc(-c3ccc(-c4cncc(NS(=O)(=O)c5ccc(C(C)(C)C)cc5)c4)s3)ccc2C1=O [Compound 3, 4-(tert-Butyl)-N-(5-(5-(2-methyl-1-oxoisoindolin-5-yl)thiophen-2-yl)pyridin-3-yl)benzenesulfonamide] |  |  | 
2 | 292 to 294 °C | CN1Cc2cc(-c3ccc(-c4cncc(NS(=O)(=O)c5cccc(F)c5)c4)s3)ccc2C1=O [Compound 5, 3-Fluoro-N-(5-(5-(2-methyl-1-oxoisoindolin-5-yl)thiophen-2-yl)pyridin-3-yl)benzene-sulfonamide] |  |  | 
3 | 282 to 285 °C | CN1Cc2cc(-c3ccc(-c4cncc(NS(=O)(=O)c5ccc(F)c(F)c5)c4)s3)ccc2C1=O [Compound 7, 3,4-Difluoro-N-(5-(5-(2-methyl-1-oxoisoindolin-5-yl)thiophen-2-yl)pyridin-3-yl)benzene-sulfonamide] |  |  | 
4 | 293 to 296 °C | CN1Cc2cc(-c3ccc(-c4cncc(NS(=O)(=O)c5ccc(OC(F)(F)F)cc5)c4)s3)ccc2C1=O [Compound 24, N-(5-(5-(2-Methyl-1-oxoisoindolin-5-yl)thiophen-2-yl)pyridin-3-yl)-4-(trifluoromethoxy)benzenesulfonamide] |  |  | 
5 | 292 to 295 °C | CN1Cc2cc(-c3ccc(-c4cncc(NS(=O)(=O)c5ccc(C(F)(F)F)cc5Cl)c4)s3)ccc2C1=O [Compound 26, 2-Chloro-N-(5-(5-(2-methyl-1-oxoisoindolin-5-yl)thiophen-2-yl)pyridin-3-yl)-4-(trifluoromethyl)benzenesulfonamide] |  |  | 
6 | 260 to 265 °C | CN1Cc2cc(-c3ccc(-c4cncc(NS(=O)(=O)c5ccc(Cl)nc5)c4)s3)ccc2C1=O [Compound 33, 6-Chloro-N-(5-(5-(2-methyl-1-oxoisoindolin-5-yl)thiophen-2-yl)pyridin-3-yl)pyridine-3-sulfonamide] |  |  | 
7 | 280 to 283 °C | COc1ncc(-c2ccc(-c3ccc4c(c3)CN(C)C4=O)s2)cc1NS(=O)(=O)c1ccccc1 [Compound 36, N-(2-Methoxy-5-(5-(2-methyl-1-oxoisoindolin-5-yl)thiophen-2-yl)pyridin-3-yl)benzenesulphonamide] |  |  | 
8 | 269 to 272 °C | CN1Cc2cc(-c3ccc(-c4ccc(NS(=O)(=O)c5ccc(F)cc5F)nc4)s3)ccc2C1=O [Compound 42, 2,4-Difluoro-N-(5-(5-(2-methyl-1-oxoisoindolin-5-yl)thiophen-2-yl)pyridin-2-yl)benzenesulfonamide] |  |  | 
9 | 267 to 269 °C | CN1Cc2cc(-c3ccc(-c4cncc(NC(=O)c5ccc(F)cc5F)c4)s3)ccc2C1=O [Compound 47, 2,4-Difluoro-N-(5-(5-(2-methyl-1-oxoisoindolin-5-yl)thiophen-2-yl)pyridin-3-yl)benzamide] |  |  | 
10 | 229 to 230 °C | CC1c2cc(-c3ccc(-c4cncc(NS(=O)(=O)c5ccc(F)cc5F)c4)s3)ccc2C(=O)N1C (centres unmarked) [Compound 51, N-(5-(5-(2,3-Dimethyl-1-oxoisoindolin-5-yl)thiophen-2-yl)pyridin-3-yl)-2,4-difluorobenzenesulfonamide] |  |  | 
11 | 267 to 270 °C | O=C1NCCc2cc(-c3ccc(-c4cncc(NS(=O)(=O)c5ccc(F)cc5F)c4)s3)ccc21 [Compound 52, 2,4-Difluoro-N-(5-(5-(1-oxo-1,2,3,4-tetrahydroisoquinolin-6-yl)thiophen-2-yl)pyridin-3-yl)benzensulphonamide] |  |  | 
12 | 262 to 265 °C | CN1CCc2cc(-c3ccc(-c4cncc(NS(=O)(=O)c5ccc(F)cc5F)c4)s3)ccc2C1=O [Compound 53, 2,4-Difluoro-N-(5-(5-(2-methyl-1-oxo-1,2,3,4-tetrahydroisoquinolin-6-yl)thiophen-2-yl)pyridin-3-yl)benzenesulfonamide] |  |  | 
13 | 252 °C (dec.) | O=C1NCCc2ccc(-c3ccc(-c4cncc(NS(=O)(=O)c5ccc(F)cc5F)c4)s3)cc21 [Compound 54, 2,4-Difluoro-N-(5-(5-(1-oxo-1,2,3,4-tetrahydroisoquinolin-7-yl)thiophen-2-yl)pyridin-3-yl)benzenesulfonamide] |  |  | 
14 | 239 to 241 °C | O=C1c2ccc(-c3ccc(-c4cncc(NS(=O)(=O)c5ccc(F)cc5F)c4)s3)cc2CN1CCCO [Compound 57, 2,4-Difluoro-N-(5-(5-(2-(3-hydroxypropyl)-1-oxoisoindolin-5-yl)thiophen-2-yl)pyridin-3-yl)benzenesulfonamide] |  |  | 
15 | 268 to 271 °C | Cc1ccc(NS(=O)(=O)c2ccc(F)cc2F)cc1-c1ccc(-c2ccc3c(c2)CN(C)C3=O)s1 [Compound 61, 2,4-Difluoro-N-(4-methyl-3-(5-(2-methyl-1-oxoisoindolin-5-yl)thiophen-2-yl)phenyl)benzenesulfonamide] |  |  | 

The remaining lines, values behind:

Row | SMILES | melting point | IC50 (recombinant perforin; [2]) [µM] | inhibition at 20 µM [1] [%] | IC50 (recombinant perforin; [3]) [µM]
16 | CN1Cc2cc(-c3ccc(-c4cncc(NS(=O)(=O)c5ccc(Cl)cc5Cl)c4)s3)ccc2C1=O [Compound 13, 2,4-Dichloro-N-(5-(5-(2-methyl-1-oxoisoindolin-5-yl)thiophen-2-yl)pyridin-3-yl)benzene-sulfonamide] | 282 to 285 °C | 15 |  | 
17 | COc1ccccc1S(=O)(=O)Nc1cncc(-c2ccc(-c3ccc4c(c3)CN(C)C4=O)s2)c1 [Compound 18, 2-Methoxy-N-(5-(5-(2-methyl-1-oxoisoindolin-5-yl)thiophen-2-yl)pyridin-3-yl)benzenesulfonamide] | 273 to 276 °C | 14.8 |  | 
18 | CN1Cc2cc(-c3ccc(-c4cncc(NS(=O)(=O)c5ccccc5OC(F)(F)F)c4)s3)ccc2C1=O [Compound 22, N-(5-(5-(2-Methyl-1-oxoisoindolin-5-yl)thiophen-2-yl)pyridin-3-yl)-2-(trifluoromethoxy)benzenesulfonamide] | 251 to 254 °C | 17.7 |  | 
19 | CN1Cc2cc(-c3ccc(-c4cncc(NS(=O)(=O)c5cccnc5)c4)s3)ccc2C1=O [Compound 32, N-(5-(5-(2-Methyl-1-oxoisoindolin-5-yl)thiophen-2-yl)pyridin-3-yl)pyridine-3-sulfonamide] | 283 to 286 °C | 15.1 |  | 
20 | COc1ncc(-c2ccc(-c3ccc4c(c3)CNC4=O)s2)cc1NS(=O)(=O)c1ccc(F)cc1F [Compound 38, 2,4-Difluoro-N-(2-methoxy-5-(5-(1-oxoisoindolin-5-yl)thiophen-2-yl)pyridin-3-yl)benzene sulphonamide] | 266 to 270 °C | 5.41 |  | 
21 | CN1Cc2cc(-c3ccc(-c4cncc(NS(=O)(=O)c5ccccc5C(F)(F)F)c4)s3)ccc2C1=O [Compound 78, N-(5-(5-(2-Methyl-1-oxoisoindolin-5-yl)thiophen-2-yl)pyridin-3-yl)-2-(trifluoromethyl)benzenesulfonamide] |  | 1.45 | 56 ± 9 | 
22 | CN1Cc2cc(-c3ccc(-c4cncc(NS(=O)(=O)c5cccc(C(F)(F)F)c5)c4)s3)ccc2C1=O [Compound 81, N-(5-(5-(2-Methyl-1-oxoisoindolin-5-yl)thiophen-2-yl)pyridin-3-yl)-3-(trifluoromethyl)benzenesulfonamides] |  | 0.91 | 37.8 ± 19 | 
23 | CN1Cc2cc(-c3ccc(-c4cncc(NS(=O)(=O)c5ccccc5S(C)(=O)=O)c4)s3)ccc2C1=O [Compound 82, N-(5-(5-(2-Methyl-1-oxoisoindolin-5-yl)thiophen-2-yl)pyridin-3-yl)-2-(methylsulfonyl)benzenesulfonamides] |  | 6.8 | 30.5 ± 11 | 
24 | COC(=O)c1ccc(S(=O)(=O)Nc2cncc(-c3ccc(-c4ccc5c(c4)CN(C)C5=O)s3)c2)cc1 [Compound 84, Methyl 4-(N-(5-(5-(2-methyl-1-oxoisoindolin-5-yl)thiophen-2-yl)pyridin-3-yl)sulfamoyl)benzoate] |  | 8.16 | 8.84 | 
25 | COC(=O)c1ccccc1S(=O)(=O)Nc1cncc(-c2ccc(-c3ccc4c(c3)CN(C)C4=O)s2)c1 [Compound 86, Methyl 2-(N-(5-(5-(2-methyl-1-oxoisoindolin-5-yl)thiophen-2-yl)pyridin-3-yl)sulfamoyl)benzoate] |  | 2.9 | 2.3 ± 3 | 
26 | CN1Cc2cc(-c3ccc(-c4cncc(NS(=O)(=O)c5ccc(Br)s5)c4)s3)ccc2C1=O [Compound 87, 5-Bromo-N-(5-(5-(2-methyl-1-oxoisoindolin-5-yl)thiophen-2-yl)pyridin-3-yl)thiophene-2-sulphonamide] |  |  | 31.6 ± 6 | 1.8
27 | CN1Cc2cc(-c3ncc(-c4cncc(NS(=O)(=O)c5ccc(F)cc5F)c4)s3)ccc2C1=O [Compound 88, 2,4-Difluoro-N-(5-(2-(2-methyl-1-oxoisoindolin-5-yl)thiazol-5-yl)pyridin-3-yl)benzenesulphonamide] |  |  | 40.5 ± 23 | 18.8
28 | CN1Cc2cc(-c3ccc(-c4cncc(NS(=O)(=O)c5ccc(F)c(C(F)(F)F)c5)c4)s3)ccc2C1=O [Compound 89, 4-Fluoro-N-(5-(5-(2-methyl-1-oxoisoindolin-5-yl)thiophen-2-yl)pyridin-3-yl)-3-(trifluoromethyl)benzenesulphonamide] |  | 3.75 | 59.9 ± 13 | 
